In US11642336B2, “5-HT2A agonists for use in treatment of depression” (priority 2019, dated 2023):
Counter-ions that a name gives are not always drawn. Like-named read-outs stand apart in the source and are kept apart here. Marks after values point to notes of the source that are not given here.

Tests used:
Assay type in all cases: cell-based
[1] = target: T1, human 5-HT2A (Homo sapiens (Human), UniProt P28223); test: cell-based; conditions: for EC50: agonist potency, n = 3-4; for 5-HT2A Rmax ± S.E.M: % of the Rmax of 5-HT; for Selectivity EC50 5-HT2C/EC50 5-HT2A: Ca2+/Fluo-4 assay, bounds are conservative estimates
[2] = target: 5-HT2C (Homo sapiens (Human), UniProt P28335); test: Ca2+/Fluo-4 assay, stable h5-HT2C-HEK293 cell line; conditions: for EC50: agonist potency, n = 3-4; for 5-HT2C Rmax ± S.E.M: % of the Rmax of 5-HT;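 as to all read-outs here: Agonist-induced intracellular Ca2+ rise read by Fluo-4 fluorescence in HEK293 cells stably expressing the human 5-HT2C receptor, each compound run in duplicate on three or more occasions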
Experimental: The functional properties of the compounds were characterised at stable HEK293 cell lines stably expressing the human 5-HT2A receptor or human 5-HT2C receptor in the Ca^2+/Fluo-4 assay essentially as previously described.^10 Briefly, the cells were split into poly-D-lysine-coated black 96-well plates with clear bottoms (6×10^4 cells/well). The following day the culture medium was aspirated and the cells were incubated in 50 μl assay buffer [Hanks Buffered Saline Solution containing 20 mM HEPES, 1 mM CaCl2, 1 mM MgCl2, 2.5 mM probenecid, pH 7.4] supplemented with 6 mM Fluo-4/AM at 37° C. for 1 hour. Next, the buffer was aspirated, the cells were washed once with 100 μl assay buffer, and then 100 μl assay buffer was added to the cells (in the antagonist experiments the compound was added at this point). […] The compounds were characterized in duplicate at least three times at each cell line.

[3] = target: T1, human 5-HT2A; test: cell-based; conditions: IP assay; for 5-HT2A Rmax: % of Rmax of 5-HT; for EC50: duplicate determinations
[4] = target: 5-HT2B (Homo sapiens (Human), UniProt P41595); test: IP assay (Eurofins, IP1 HTRF), HEK293 cells; conditions: for 5-HT2B Rmax: % of Rmax of 5-HT; for EC50: duplicate determinations, read-out: 5-HT2B EC50; for Selectivity EC50 5-HT2B/EC50 5-HT2A: bounds are conservative estimates;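 as to all read-outs here: agonist effect read as cellular IP1 production by HTRF using a europium cryptate anti-IP1 antibody donor and D2-labeled IP1 acceptor, eight compound concentrations in each cell line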
Experimental: The agonist properties of the compounds were characterized at HEK293 cell lines expressing the human 5-HT2A, human 5-HT2B or human 5-HT2C receptors in an IP assay essentially as previously described.^19 The testing was performed by Eurofins. In the assay, the agonist activity of the compound at the receptors is investigated by measuring its effect on IP1 production in the cell using the Homogeneous Time Resolved Fluorescence (HTRF) detection method. […] Following incubation, the cells were lysed, and the fluorescence acceptor (D2-labeled IP1) and fluorescence donor (anti-IP1 antibody labeled with europium cryptate) were added. […] The test compounds were characterized in eight different concentrations in duplicate at each of the three cell lines.

[5] = read-out: 5-HT2A [pEC50 ± S.E.M.] (converted)
[6] = read-out: 5-HT2C [pEC50 ± S.E.M.] (converted)

5-HT2C, sequence (P28335 whole entry, looked up): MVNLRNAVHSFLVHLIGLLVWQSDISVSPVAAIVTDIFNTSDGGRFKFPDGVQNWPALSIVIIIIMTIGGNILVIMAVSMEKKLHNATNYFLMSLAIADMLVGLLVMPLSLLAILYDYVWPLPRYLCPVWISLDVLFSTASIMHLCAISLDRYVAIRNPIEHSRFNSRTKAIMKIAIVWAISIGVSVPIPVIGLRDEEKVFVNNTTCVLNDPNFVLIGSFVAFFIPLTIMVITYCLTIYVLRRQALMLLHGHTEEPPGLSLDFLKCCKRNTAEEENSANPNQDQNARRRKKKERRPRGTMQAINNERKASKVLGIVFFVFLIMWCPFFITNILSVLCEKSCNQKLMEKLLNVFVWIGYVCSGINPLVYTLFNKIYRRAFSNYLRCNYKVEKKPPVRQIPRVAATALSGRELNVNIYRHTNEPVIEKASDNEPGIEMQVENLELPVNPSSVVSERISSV
5-HT2B, sequence (P41595 whole entry, looked up): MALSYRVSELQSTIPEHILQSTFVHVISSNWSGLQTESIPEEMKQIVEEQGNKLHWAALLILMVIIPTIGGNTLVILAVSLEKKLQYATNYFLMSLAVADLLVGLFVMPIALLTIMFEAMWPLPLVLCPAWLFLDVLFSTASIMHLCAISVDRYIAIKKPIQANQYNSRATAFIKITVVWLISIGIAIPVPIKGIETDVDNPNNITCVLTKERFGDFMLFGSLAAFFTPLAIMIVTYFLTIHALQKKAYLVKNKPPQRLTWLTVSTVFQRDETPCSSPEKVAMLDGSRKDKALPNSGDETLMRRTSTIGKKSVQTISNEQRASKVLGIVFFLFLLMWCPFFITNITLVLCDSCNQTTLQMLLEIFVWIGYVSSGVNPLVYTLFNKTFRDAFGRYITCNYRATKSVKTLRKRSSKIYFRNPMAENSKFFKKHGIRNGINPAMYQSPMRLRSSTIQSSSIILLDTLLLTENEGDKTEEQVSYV

SMILES: COc1cc([C@@H]2CCCNC2)c(OC)cc1C#N [Compound 16, (S)-2,5-dimethoxy-4-(piperidin-3-yl)benzonitrile]
- EC50 ([1]; read-out: 5-HT2A EC50): 270 nM
- EC50 [1, 5]: 275 nM
- EC50 ([2]; read-out: 5-HT2C EC50): > 50000 nM
- 5-HT2A Rmax [3]: 77%
- EC50 [3]: 980 nM
- 5-HT2B Rmax [4]: 45%
- EC50 [4]: 5000 nM

SMILES: COc1cc([C@@H]2CCCNC2)c(OC)cc1Cl [Compound 10, (S)-3-(4-Chloro-2,5-dimethoxyphenyl)piperidine]
- EC50 ([1]; read-out: 5-HT2A EC50): 66 nM
- EC50 ([2]; read-out: 5-HT2C EC50): > 50000 nM
- 5-HT2C agonist activity (n.a./w.a.) ([2]; tested up to 50 μM): n.a. [@ 50 μM]^a (no agonist activity: the compound did not evoke significant responses at concentrations up to 50 μM)
- 5-HT2A Rmax [3]: 62%
- EC50 [3]: 380 nM
- 5-HT2B Rmax [4]: 50%
- EC50 [4]: 240 nM

SMILES: COc1cc(C(F)(F)F)c(F)cc1[C@@H]1CCCNC1.Cl [Compound 51, (S)-3-(5-fluoro-2-methoxy-4-(trifluoromethyl)phenyl)piperidine hydrochloride]
- 5-HT2A Rmax ± S.E.M [1]: 79 ± 5%
- Selectivity EC50 5-HT2C/EC50 5-HT2A [1]: >100^e
- EC50 ([1]; read-out: 5-HT2A EC50): 140 nM
- 5-HT2A Rmax [3]: 59%
- EC50 [3]: 260 nM
- 5-HT2B Rmax [4]: 37%
- Selectivity EC50 5-HT2B/EC50 5-HT2A [4]: 2.8
- EC50 [4]: 740 nM

SMILES: CCOc1cc([C@@H]2CCCNC2)c(OC)cc1CC.Cl [Compound 34, (S)-3-(5-ethoxy-4-ethyl-2-methoxyphenyl)piperidine hydrochloride]
- 5-HT2A Rmax ± S.E.M [1]: 88 ± 4%
- Selectivity EC50 5-HT2C/EC50 5-HT2A [1]: 16
- EC50 ([1]; read-out: 5-HT2A EC50): 52 nM
- EC50 [1, 5]: 51.3 nM
- 5-HT2C Rmax ± S.E.M [2]: 28 ± 4%
- EC50 ([2]; read-out: 5-HT2C EC50): 840 nM
- 5-HT2A Rmax [3]: 78%
- EC50 [3]: 160 nM
- 5-HT2B Rmax [4]: 50%
- Selectivity EC50 5-HT2B/EC50 5-HT2A [4]: 5.4
- EC50 [4]: 860 nM

SMILES: CCSc1cc([C@@H]2CCCNC2)c(OC)cc1C(F)(F)F.Cl [Compound 47, (S)-3-(2-methoxy-5-(ethylthio)-4-(trifluoromethyl)phenyl)piperidine Hydrochloride]
- 5-HT2A Rmax ± S.E.M [1]: 96 ± 3%
- Selectivity EC50 5-HT2C/EC50 5-HT2A [1]: 17
- EC50 [1, 5]: 26.3 nM
- 5-HT2C Rmax ± S.E.M [2]: 43 ± 6%
- EC50 ([2]; read-out: 5-HT2C EC50): 450 nM
- EC50 [2, 6]: 457 nM
- 5-HT2A Rmax [3]: 95%
- EC50 [3]: 130 nM
- 5-HT2B Rmax [4]: 49%
- Selectivity EC50 5-HT2B/EC50 5-HT2A [4]: 4.8
- EC50 [4]: 620 nM

SMILES: CCc1cc(OC)c([C@@H]2CCCNC2)cc1OC.Cl [Compound 32, (S)-3-(4-ethyl-2,5-dimethoxyphenyl)piperidine hydrochloride]
- 5-HT2A Rmax ± S.E.M [1]: 79 ± 4%
- EC50 [1, 5]: 40.7 nM
- 5-HT2A Rmax [3]: 85%
- EC50 [3]: 110 nM
- 5-HT2B Rmax [4]: 54%
- EC50 [4]: 280 nM

SMILES: COc1cc([C@@H]2CCCNC2)c(OC)cc1SC.Cl [Compound 18, (S)-3-(2,5-dimethoxy-4-(methylthio)phenyl)piperidine hydrochloride]
- EC50 [1, 5]: 25.7 nM
- EC50 ([2]; read-out: 5-HT2C EC50): 510 nM
- 5-HT2A Rmax [3]: 72%
- EC50 [3]: 270 nM
- 5-HT2B Rmax [4]: 64%
- EC50 [4]: 180 nM

SMILES: CCSc1cc(OC)c([C@@H]2CCCNC2)cc1OC.Cl [Compound 28, (S)-3-(2,5-dimethoxy-4-(ethylthio)phenyl)piperidine hydrochloride]
- 5-HT2A Rmax [3]: 62%
- EC50 [3]: 180 nM
- 5-HT2B Rmax [4]: 55%
- EC50 [4]: 240 nM

SMILES: CCOc1cc(C(F)(F)F)c(OC)cc1[C@@H]1CCCNC1.Cl [Compound 30, (S)-3-(2-ethoxy-5-methoxy-4-(trifluoromethyl)phenyl)piperidine hydrochloride]
- 5-HT2A Rmax ± S.E.M [1]: 40 ± 3%
- EC50 [1, 5]: 38 nM
- 5-HT2A Rmax [3]: 35%
- EC50 [3]: 140 nM
- 5-HT2B Rmax [4]: 26%
- EC50 [4]: 1200 nM

SMILES: CCOc1cc(C(F)(F)F)c(OCC)cc1[C@@H]1CCCNC1.Cl [Compound 22, (S)-3-(2,5-diethoxy-4-(trifluoromethyl)phenyl)piperidine hydrochloride]
- 5-HT2A Rmax ± S.E.M [1]: 47 ± 6%
- Selectivity EC50 5-HT2C/EC50 5-HT2A [1]: >300^e
- EC50 ([1]; read-out: 5-HT2A EC50): 100 nM
- EC50 [1, 5]: 102 nM
- 5-HT2A Rmax [3]: 54%
- EC50 [3]: 170 nM
- Selectivity EC50 5-HT2B/EC50 5-HT2A [4]: >1,000^c
- EC50 [4]: > 100000 nM

SMILES: COc1cc([C@@H]2CCCNC2)c(OC)cc1SC(C)C [Compound 26, (S)-3-(4-(isopropylthio)-2,5-dimethoxyphenyl)piperidine]
- EC50 ([1]; read-out: 5-HT2A EC50): 160 nM
- EC50 [1, 5]: 155 nM
- 5-HT2A Rmax [3]: 72%
- EC50 [3]: 1100 nM
- 5-HT2B Rmax [4]: 43%
- EC50 [4]: 1200 nM

SMILES: COc1cc([C@@H]2CCCNC2)c(OCF)cc1C(F)(F)F [Compound 39, (S)-3-(2-(fluoromethoxy)-5-methoxy-4-(trifluoromethyl)phenyl)piperidine]
- 5-HT2A Rmax ± S.E.M [1]: 40 ± 5%
- Selectivity EC50 5-HT2C/EC50 5-HT2A [1]: >300^e
- EC50 ([1]; read-out: 5-HT2A EC50): 150 nM
- 5-HT2A Rmax [3]: 60%
- EC50 [3]: 300 nM
- 5-HT2B Rmax [4]: 54%
- Selectivity EC50 5-HT2B/EC50 5-HT2A [4]: 3.6
- EC50 [4]: 1100 nM

SMILES: COc1cc(C2CNC2)c(OC)cc1Br.Cl [Compound 1, 3-(4-bromo-2,5-dimethoxyphenyl)azetidine hydrochloride]
- 5-HT2A Rmax ± S.E.M [1]: 97 ± 3%
- Selectivity EC50 5-HT2C/EC50 5-HT2A [1]: 3.6
- EC50 [1, 5]: 1.58 nM
- 5-HT2C Rmax ± S.E.M [2]: 90 ± 3%
- EC50 ([2]; read-out: 5-HT2C EC50): 5.8 nM

SMILES: CCCCc1cc(OC)c([C@H]2CCCNC2)cc1OC [Compound 56, (R)-3-(4-butyl-2,5-dimethoxyphenyl)piperidine hydrochloride]
- EC50 ([1]; read-out: 5-HT2A EC50): 340 nM
- EC50 [1, 5]: 347 nM
- EC50 ([2]; read-out: 5-HT2C EC50): 1600 nM

SMILES: COc1cc([C@H]2CCCNC2)c(OC)cc1C [Compound 23, (R)-3-(2,5-dimethoxy-4-methylphenyl)piperidine hydrochloride]
- EC50 ([1]; read-out: 5-HT2A EC50): 260 nM
- EC50 [1, 5]: 263 nM
- EC50 ([2]; read-out: 5-HT2C EC50): 1200 nM

SMILES: COc1cc([C@@H]2CCCNC2)ccc1C(F)(F)F.Cl [Compound 49, (S)-3-(3-methoxy-4-(trifluoromethyl)phenyl)piperidine Hydrochloride]
- 5-HT2A Rmax ± S.E.M [1]: 65 ± 3%
- Selectivity EC50 5-HT2C/EC50 5-HT2A [1]: 0.51
- EC50 ([1]; read-out: 5-HT2A EC50): 2500 nM
- EC50 [1, 5]: 2450 nM
- 5-HT2C Rmax ± S.E.M [2]: 35 ± 3%
- EC50 ([2]; read-out: 5-HT2C EC50): 1300 nM
- EC50 [2, 6]: 1260 nM

SMILES: COc1cc([C@H]2CCCNC2)c(OC)cc1C#N [Compound 15, (R)-2,5-dimethoxy-4-(piperidin-3-yl)benzonitrile]
- EC50 ([1]; read-out: 5-HT2A EC50): 2200 nM
- 5-HT2C Rmax ± S.E.M [2]: ~13-17^c %
- EC50 ([2]; read-out: 5-HT2C EC50): ~10000 nM

SMILES: COc1cc(C(F)(F)F)c(F)cc1[C@H]1CCCNC1.Cl [Compound 50, (R)-3-(5-fluoro-2-methoxy-4-(trifluoromethyl)phenyl)piperidine hydrochloride]
- 5-HT2A Rmax ± S.E.M [1]: 78 ± 6%
- Selectivity EC50 5-HT2C/EC50 5-HT2A [1]: 2.8
- EC50 ([1]; read-out: 5-HT2A EC50): 640 nM
- 5-HT2C Rmax ± S.E.M [2]: 40 ± 8%
- EC50 ([2]; read-out: 5-HT2C EC50): 1800 nM
- EC50 [2, 6]: 1780 nM

SMILES: CCOc1cc(C(F)(F)F)c(OC)cc1[C@H]1CCCNC1.Cl [Compound 29, (R)-3-(2-ethoxy-5-methoxy-4-(trifluoromethyl)phenyl)piperidine hydrochloride]
- 5-HT2A Rmax ± S.E.M [1]: 77 ± 7%
- EC50 ([1]; read-out: 5-HT2A EC50): 410 nM
- EC50 ([2]; read-out: 5-HT2C EC50): 2700 nM
- EC50 [2, 6]: 2750 nM

SMILES: COc1cc([C@@H]2CCCNC2)c(OC)cc1C.Cl [Compound 24, (S)-3-(2,5-dimethoxy-4-methylphenyl)piperidine hydrochloride]
- EC50 ([1]; read-out: 5-HT2A EC50): 100 nM
- EC50 [1, 5]: 105 nM
- 5-HT2A Rmax [3]: 67%
- EC50 [3]: 560 nM
- 5-HT2B Rmax [4]: 38%
- EC50 [4]: 360 nM
